Results: the supplement of paper PMC10307832

How the values were obtained:
Assay in all cases: relative viability (nuclei count vs DMSO), 5 days (fraction); higher = more cells survive
[1] = system: NCI-H1395
In short: (§1)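 Values are medians from duplicate plates. Each reflects relative viability, defined as the nuclei count of treated wells over that of vehicle wells. Lung cancer cell lines in 1536-well plates were pin-tool dosed one day after seeding with one drug alone or with a fixed anchor-drug dose plus five library-drug doses (not always all listed) in √10 steps, then fixed, stained and imaged at 4× after 5 days.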

[2] = system: RERF-LC-KJ
In short: as §1

[3] = system: NCI-H1437
In short: as §1

[4] = system: NCI-H2405
In short: as §1

[5] = system: NCI-H2023
In short: as §1

[6] = system: HOP-62
In short: as §1

[7] = system: NCI-H647
In short: as §1

[8] = system: LCLC-97TM1
In short: as §1

[9] = system: NCI-H3122
In short: as §1

[10] = system: NCI-H1650
In short: as §1

[11] = system: NCI-H1793
In short: as §1

[12] = system: HCC-44
In short: as §1

[13] = system: NCI-H322M
In short: as §1

[14] = system: HCC-827
In short: as §1

[15] = system: SK-LU-1
In short: as §1

[16] = system: LCLC-103H
In short: as §1

[17] = system: NCI-H727
In short: as §1

[18] = system: NCI-H1355
In short: as §1

[19] = system: LXF-289
In short: as §1

[20] = system: NCI-H2087
In short: as §1

[21] = system: BEN
In short: as §1

[22] = system: 201T
In short: as §1

`Clc1ccc(Nc2nnc(Cc3ccncc3)c3ccccc23)cc1` [Vatalanib] + Nc1ncn([C@H]2C[C@H](O)[C@@H](CO)O2)c(=O)n1 [Decitabine] (partner 2 µM) was tested. Which relative viability ([1]; first compound 0.04 µM) did it give?
The relative viability was 0.718.

What about the relative viability ([1]; first compound 0.1265 µM) of the same compound?
The relative viability was 0.702.

What about the relative viability ([1]; first compound 0.4 µM) of the same compound?
Its relative viability is 0.722.

What about the relative viability ([1]; first compound 4 µM) of the same compound?
Its relative viability is 0.665.

What about the relative viability ([2]; first compound 0.04 µM) of the same compound?
The relative viability was 0.737.

What about the relative viability ([2]; first compound 0.1265 µM) of the same compound?
The relative viability was 0.739.

And the relative viability ([2]; first compound 0.4 µM)?
Its relative viability is 0.866.

And the relative viability ([2]; first compound 1.265 µM)?
Its relative viability is 0.599.

And the relative viability ([2]; first compound 4 µM)?
The relative viability was 0.665.

What about the relative viability ([3]; first compound 0.04 µM) of the same compound?
Its relative viability is 0.53.

And the relative viability ([3]; first compound 0.1265 µM)?
The relative viability was 0.523.

And the relative viability ([3]; first compound 0.4 µM)?
The relative viability was 0.573.

What about the relative viability ([3]; first compound 1.265 µM) of the same compound?
Its relative viability is 0.587.

And the relative viability ([3]; first compound 4 µM)?
The relative viability was 0.608.

And the relative viability ([4]; first compound 0.04 µM)?
Its relative viability is 0.725.

And the relative viability ([4]; first compound 0.1265 µM)?
The relative viability was 0.744.

What about the relative viability ([4]; first compound 0.4 µM) of the same compound?
The relative viability was 0.866.

And the relative viability ([4]; first compound 4 µM)?
The relative viability was 0.732.

And the relative viability ([5]; first compound 0.04 µM)?
The relative viability was 0.22.

What about the relative viability ([5]; first compound 0.1265 µM) of the same compound?
The relative viability was 0.205.

What about the relative viability ([5]; first compound 0.4 µM) of the same compound?
Its relative viability is 0.231.

And the relative viability ([5]; first compound 1.265 µM)?
The relative viability was 0.221.

And the relative viability ([5]; first compound 4 µM)?
The relative viability was 0.219.

And the relative viability ([6]; first compound 0.04 µM)?
The relative viability was 0.183.

And the relative viability ([6]; first compound 0.1265 µM)?
The relative viability was 0.216.

What about the relative viability ([6]; first compound 0.4 µM) of the same compound?
Its relative viability is 0.223.

What about the relative viability ([6]; first compound 1.265 µM) of the same compound?
The relative viability was 0.239.

And the relative viability ([6]; first compound 4 µM)?
Its relative viability is 0.205.

And the relative viability ([7]; first compound 0.04 µM)?
Its relative viability is 0.4.

And the relative viability ([7]; first compound 0.1265 µM)?
Its relative viability is 0.375.

What about the relative viability ([7]; first compound 0.4 µM) of the same compound?
The relative viability was 0.562.

And the relative viability ([7]; first compound 1.265 µM)?
The relative viability was 0.36.

And the relative viability ([7]; first compound 4 µM)?
The relative viability was 0.375.

What about the relative viability ([8]; first compound 0.04 µM) of the same compound?
The relative viability was 0.237.

What about the relative viability ([8]; first compound 0.1265 µM) of the same compound?
The relative viability was 0.19.

And the relative viability ([8]; first compound 0.4 µM)?
The relative viability was 0.25.

What about the relative viability ([8]; first compound 1.265 µM) of the same compound?
Its relative viability is 0.224.

And the relative viability ([8]; first compound 4 µM)?
Its relative viability is 0.232.

What about the relative viability ([9]; first compound 0.04 µM) of the same compound?
The relative viability was 0.411.

What about the relative viability ([9]; first compound 0.1265 µM) of the same compound?
The relative viability was 0.432.

What about the relative viability ([9]; first compound 0.4 µM) of the same compound?
The relative viability was 0.406.

And the relative viability ([9]; first compound 1.265 µM)?
Its relative viability is 0.438.

And the relative viability ([9]; first compound 4 µM)?
Its relative viability is 0.457.

And the relative viability ([10]; first compound 0.04 µM)?
The relative viability was 0.361.

What about the relative viability ([10]; first compound 0.1265 µM) of the same compound?
The relative viability was 0.414.

What about the relative viability ([10]; first compound 0.4 µM) of the same compound?
Its relative viability is 0.388.

And the relative viability ([10]; first compound 1.265 µM)?
The relative viability was 0.373.

And the relative viability ([10]; first compound 4 µM)?
The relative viability was 0.424.

And the relative viability ([11]; first compound 0.04 µM)?
Its relative viability is 0.374.

And the relative viability ([11]; first compound 0.1265 µM)?
The relative viability was 0.463.

And the relative viability ([11]; first compound 0.4 µM)?
The relative viability was 0.599.

What about the relative viability ([11]; first compound 1.265 µM) of the same compound?
The relative viability was 0.499.

And the relative viability ([11]; first compound 4 µM)?
The relative viability was 0.463.

What about the relative viability ([12]; first compound 0.04 µM) of the same compound?
The relative viability was 0.961.

And the relative viability ([12]; first compound 0.1265 µM)?
Its relative viability is 0.944.

And the relative viability ([12]; first compound 0.4 µM)?
The relative viability was 0.976.

And the relative viability ([12]; first compound 1.265 µM)?
The relative viability was 0.906.

And the relative viability ([12]; first compound 4 µM)?
Its relative viability is 0.961.

And the relative viability ([13]; first compound 0.04 µM)?
Its relative viability is 0.769.

And the relative viability ([13]; first compound 0.1265 µM)?
The relative viability was 0.687.

And the relative viability ([13]; first compound 0.4 µM)?
The relative viability was 0.786.

What about the relative viability ([13]; first compound 4 µM) of the same compound?
The relative viability was 0.663.

And the relative viability ([14]; first compound 0.04 µM)?
Its relative viability is 0.28.

And the relative viability ([14]; first compound 0.1265 µM)?
Its relative viability is 0.308.

And the relative viability ([14]; first compound 1.265 µM)?
Its relative viability is 0.266.

And the relative viability ([14]; first compound 4 µM)?
The relative viability was 0.343.

And the relative viability ([15]; first compound 0.04 µM)?
The relative viability was 0.614.

And the relative viability ([15]; first compound 0.1265 µM)?
The relative viability was 0.584.

And the relative viability ([15]; first compound 0.4 µM)?
The relative viability was 0.668.

What about the relative viability ([15]; first compound 1.265 µM) of the same compound?
The relative viability was 0.668.

And the relative viability ([15]; first compound 4 µM)?
Its relative viability is 0.52.

What about the relative viability ([16]; first compound 0.04 µM) of the same compound?
Its relative viability is 0.715.

And the relative viability ([16]; first compound 0.1265 µM)?
The relative viability was 0.722.

And the relative viability ([16]; first compound 0.4 µM)?
The relative viability was 0.759.

And the relative viability ([16]; first compound 1.265 µM)?
The relative viability was 0.71.

What about the relative viability ([16]; first compound 4 µM) of the same compound?
The relative viability was 0.725.

What about the relative viability ([17]; first compound 0.1265 µM) of the same compound?
Its relative viability is 0.801.

What about the relative viability ([17]; first compound 0.4 µM) of the same compound?
Its relative viability is 0.539.

And the relative viability ([17]; first compound 1.265 µM)?
Its relative viability is 0.821.

What about the relative viability ([17]; first compound 4 µM) of the same compound?
Its relative viability is 0.973.

And the relative viability ([18]; first compound 0.04 µM)?
The relative viability was 0.393.

And the relative viability ([18]; first compound 0.1265 µM)?
Its relative viability is 0.328.

What about the relative viability ([18]; first compound 0.4 µM) of the same compound?
The relative viability was 0.343.

What about the relative viability ([18]; first compound 1.265 µM) of the same compound?
Its relative viability is 0.33.

And the relative viability ([18]; first compound 4 µM)?
Its relative viability is 0.356.

What about the relative viability ([19]; first compound 0.04 µM) of the same compound?
The relative viability was 0.368.

And the relative viability ([19]; first compound 0.1265 µM)?
Its relative viability is 0.38.

What about the relative viability ([19]; first compound 0.4 µM) of the same compound?
Its relative viability is 0.445.

And the relative viability ([19]; first compound 1.265 µM)?
The relative viability was 0.361.

And the relative viability ([19]; first compound 4 µM)?
The relative viability was 0.352.

What about the relative viability ([20]; first compound 0.04 µM) of the same compound?
Its relative viability is 0.286.

And the relative viability ([20]; first compound 0.1265 µM)?
The relative viability was 0.292.

What about the relative viability ([20]; first compound 0.4 µM) of the same compound?
Its relative viability is 0.273.

And the relative viability ([20]; first compound 1.265 µM)?
Its relative viability is 0.298.

And the relative viability ([20]; first compound 4 µM)?
The relative viability was 0.275.

What about the relative viability ([21]; first compound 0.04 µM) of the same compound?
Its relative viability is 0.644.

What about the relative viability ([21]; first compound 0.1265 µM) of the same compound?
The relative viability was 0.727.

What about the relative viability ([21]; first compound 0.4 µM) of the same compound?
Its relative viability is 0.504.

And the relative viability ([21]; first compound 1.265 µM)?
Its relative viability is 0.739.

What about the relative viability ([21]; first compound 4 µM) of the same compound?
The relative viability was 0.774.

What about the relative viability ([22]; first compound 0.04 µM) of the same compound?
The relative viability was 0.832.

What about the relative viability ([22]; first compound 0.1265 µM) of the same compound?
The relative viability was 0.85.

What about the relative viability ([22]; first compound 0.4 µM) of the same compound?
The relative viability was 0.881.

And the relative viability ([22]; first compound 1.265 µM)?
Its relative viability is 0.867.

What about the relative viability ([22]; first compound 4 µM) of the same compound?
The relative viability was 0.861.
